Measured values published in the CheMixHub ionic liquid set.
± gives the uncertainty stated by the source.

Experiment: xn = mol fraction of the nth substance listed

C=C[n+]1ccn(CCCC)c1.NCCCC[C@H](N)C(=O)[O-] + O
101.3 kPa
Conditions | electrical conductivity [S/m] | viscosity [mPa·s]
293.15 K, x1 = 0.3 | – | 8.51 ± 0.21
293.15 K, x1 = 0.5 | – | 90.4 ± 5.5
293.15 K, x1 = 0.9 | – | 1909 ± 710
293.15 K, x1 = 1 | – | 10700
303.15 K, x1 = 0.5 | 2.81 ± 0.11 | 69.3 ± 2.4
303.15 K, x1 = 0.9 | 1.13 ± 0.067 | 1664 ± 590
303.15 K, x1 = 1 | 0.133 ± 0.002 | 6900
308.15 K, x1 = 0.1 | 2.16 ± 0.042 | –
313.15 K, x1 = 0.3 | 2.99 ± 0.091 | 4.43 ± 0.11
313.15 K, x1 = 0.5 | 3.31 ± 0.075 | 51.34 ± 0.35
323.15 K, x1 = 0.5 | 3.88 ± 0.057 | 40.64 ± 0.98
333.15 K, x1 = 0.9 | – | 750 ± 210
343.15 K, x1 = 0.5 | – | 36.74 ± 0.88
343.15 K, x1 = 0.9 | – | 223 ± 34
353.15 K, x1 = 0.1 | – | 1.39 ± 0.05
353.15 K, x1 = 0.3 | – | 2.03 ± 0.06

CC(=O)[O-].CCC[NH3+] + O
298.15 K, 101 kPa
Conditions | electrical conductivity [S/m]
x1 = 0.0032 | 0.713 ± 0.026
x1 = 0.005 | 0.905 ± 0.028
x1 = 0.0101 | 1.43 ± 0.03
x1 = 0.0169 | 1.47 ± 0.03
x2 = 0 | 0.043 ± 0.001
x2 = 0.1576 | 0.082 ± 0.002
x2 = 0.3525 | 0.165 ± 0.003
x2 = 0.5506 | 0.401 ± 0.008
x2 = 0.6999 | 0.685 ± 0.014
x2 = 0.7885 | 0.937 ± 0.019
x2 = 0.8198 | 1.06 ± 0.021
x2 = 0.8501 | 1.18 ± 0.024
x2 = 0.8849 | 1.34 ± 0.027
x2 = 0.9041 | 1.44 ± 0.029
x2 = 0.9082 | 1.47 ± 0.029
x2 = 0.9305 | 1.59 ± 0.032
x2 = 0.9455 | 1.65 ± 0.033
x2 = 0.965 | 1.65 ± 0.033
x2 = 0.9742 | 1.61 ± 0.032

CC(=O)[O-].CC[NH+](CC)CC + O
298.15 K, 101 kPa
Conditions | viscosity [mPa·s]
x1 = 0.0288 | 6.32 ± 0.39
x1 = 0.042 | 8.12 ± 0.51
x1 = 0.0638 | 10.7 ± 0.68
x1 = 0.0847 | 13.35 ± 0.85
x1 = 0.1016 | 14.91 ± 0.96
x1 = 0.1457 | 18.6 ± 1.2
x1 = 0.2125 | 23.4 ± 1.5
x1 = 0.2349 | 24.4 ± 1.6
x1 = 0.2904 | 26.5 ± 1.8
x1 = 0.3254 | 27.4 ± 1.9
x1 = 0.367 | 27.8 ± 1.9
x1 = 0.4174 | 28.2 ± 1.9
x1 = 0.5162 | 27.6 ± 1.9
x1 = 0.5579 | 26.8 ± 1.8
x1 = 0.6055 | 26.1 ± 1.8
x1 = 0.6604 | 25.3 ± 1.7
x1 = 0.7243 | 24.2 ± 1.6
x1 = 0.7996 | 22.9 ± 1.5
x1 = 0.8899 | 22.7 ± 1.5
x1 = 1 | 24.1 ± 1.6

CCCCCCCCCCCC[n+]1ccn(C)c1.[Cl-] + O
298.15 K, 100 kPa, frequency 0.001 MHz
Conditions | electrical conductivity [S/m]
x1 = 7.207e-05 | 0.035 ± 0.016
x1 = 9.009e-05 | 0.043 ± 0.017
x1 = 0.0001261 | 0.059 ± 0.017
x1 = 0.0001802 | 0.085 ± 0.017
x1 = 0.0002162 | 0.102 ± 0.016
x1 = 0.0002882 | 0.129 ± 0.011
x1 = 0.0003242 | 0.137 ± 0.0083
x1 = 0.0004143 | 0.155 ± 0.0076
x1 = 0.0004503 | 0.163 ± 0.0074
x1 = 0.0004863 | 0.17 ± 0.0077
x1 = 0.0005223 | 0.177 ± 0.0069

CCCCCCCCCC[N+](C)(C)C.[Br-] + O
298.15 K, 101 kPa
Conditions | viscosity [mPa·s]
x1 = 9.063e-05 | 0.9026
x1 = 0.0001809 | 0.9052
x1 = 0.0002674 | 0.9071
x1 = 0.0003644 | 0.9089
x1 = 0.0004939 | 0.9162
x1 = 0.000699 | 0.9255
x1 = 0.0009049 | 0.9331
x1 = 0.00108 | 0.939
x1 = 0.001236 | 0.9459
x1 = 0.001415 | 0.9542
x1 = 0.001504 | 0.9589
x1 = 0.001656 | 0.9675
x1 = 0.001835 | 0.9775

CCCCCCCCCC[n+]1ccn(C)c1.O=S(=O)([N-]S(=O)(=O)C(F)(F)C(F)(F)F)C(F)(F)C(F)(F)F + O
Conditions | electrical conductivity [S/m]
295.15 K, 101 kPa, x2 = 0.14 | 0.11 ± 0.02

CCCCCCCCCC[n+]1ccn(C)c1.[Cl-] + O
298.15 K, frequency 5e-05 MHz
Conditions | electrical conductivity [S/m]
100 kPa, x1 = 0.0002846 | 0.126 ± 0.069
100 kPa, x1 = 0.0003693 | 0.163 ± 0.07
100 kPa, x1 = 0.0004125 | 0.177 ± 0.072
100 kPa, x1 = 0.0004683 | 0.205 ± 0.071
100 kPa, x1 = 0.0005331 | 0.235 ± 0.069
100 kPa, x1 = 0.0005997 | 0.262 ± 0.071
100 kPa, x1 = 0.0006609 | 0.294 ± 0.068
100 kPa, x1 = 0.0007347 | 0.32 ± 0.067
100 kPa, x1 = 0.0007922 | 0.347 ± 0.067
100 kPa, x1 = 0.0008678 | 0.375 ± 0.059
100 kPa, x1 = 0.000929 | 0.4 ± 0.053
100 kPa, x1 = 0.0009883 | 0.424 ± 0.051
100 kPa, x1 = 0.001073 | 0.44 ± 0.042
100 kPa, x1 = 0.001143 | 0.446 ± 0.035
100 kPa, x1 = 0.001186 | 0.45 ± 0.035
100 kPa, x1 = 0.001274 | 0.458 ± 0.033
100 kPa, x1 = 0.001346 | 0.467 ± 0.034
100 kPa, x1 = 0.001387 | 0.471 ± 0.033
100 kPa, x1 = 0.001452 | 0.479 ± 0.034
100 kPa, x1 = 0.001524 | 0.489 ± 0.035
100 kPa, x1 = 0.001603 | 0.493 ± 0.033
100 kPa, x1 = 0.001637 | 0.497 ± 0.033
101.3 kPa, x1 = 0.04436 | 4.7 ± 0.2

298.15 K, 101.3 kPa
Conditions | electrical conductivity [S/m]
x1 = 6.46e-06 | 0.00385 ± 4e-05
x1 = 9.55e-06 | 0.00548 ± 6e-05
x1 = 1.262e-05 | 0.00708 ± 7e-05
x1 = 1.582e-05 | 0.00872 ± 9e-05
x1 = 1.894e-05 | 0.0103 ± 0.0001
x1 = 2.2e-05 | 0.0118 ± 0.00012
x1 = 2.507e-05 | 0.01334 ± 0.00013
x1 = 2.8e-05 | 0.0148 ± 0.00015
x1 = 3.092e-05 | 0.0162 ± 0.00016
x1 = 3.384e-05 | 0.0176 ± 0.00018

CCCCCCCCn1cc[n+](C)c1.N[C@@H](CCC(=O)O)C(=O)[O-] + O
298.15 K, 100 kPa
Conditions | electrical conductivity [S/m]
x1 = 0.001637 | 0.28 ± 0.005
x1 = 0.002301 | 0.358 ± 0.0056
x1 = 0.002857 | 0.426 ± 0.0062
x1 = 0.003573 | 0.518 ± 0.0069
x1 = 0.004181 | 0.593 ± 0.0069
x1 = 0.004913 | 0.651 ± 0.007
x1 = 0.005822 | 0.708 ± 0.0074
x1 = 0.006748 | 0.759 ± 0.0078
x1 = 0.008079 | 0.835 ± 0.0086
x1 = 0.008965 | 0.89 ± 0.009
x1 = 0.01029 | 0.928 ± 0.0093
x1 = 0.01145 | 0.926 ± 0.0093

CCCCCC[N+](C)(C)C.[Br-] + O
298.15 K, 101 kPa
Conditions | electrical conductivity [S/m] | viscosity [mPa·s]
x1 = 0.000888 | – | 0.9148
x1 = 0.001394 | – | 0.9261
x1 = 0.002133 | – | 0.9439
x1 = 0.003331 | – | 0.9727
x1 = 0.004173 | – | 0.9962
x1 = 0.004485 | 1.84 ± 0.074 | –
x1 = 0.005042 | – | 1.019
x1 = 0.005996 | – | 1.043
x1 = 0.006874 | – | 1.066
x1 = 0.007743 | – | 1.088
x1 = 0.008657 | – | 1.113
x1 = 0.0096 | – | 1.138
x1 = 0.01046 | – | 1.162
x1 = 0.01139 | – | 1.189
x1 = 0.01245 | – | 1.222

CCCCCC[NH2+]CCN.O=S(=O)([N-]S(=O)(=O)C(F)(F)F)C(F)(F)F + O
101.3 kPa
Conditions | electrical conductivity [S/m] | viscosity [mPa·s]
308.15 K, x1 = 0.5022 | 0.182 ± 0.004 | 77.8 ± 2.4
318.15 K, x1 = 0.5763 | 0.188 ± 0.0038 | 50.3 ± 1.4
323.15 K, x1 = 0.401 | 0.589 ± 0.012 | 21.2 ± 0.6
328.15 K, x1 = 0.5022 | 0.42 ± 0.01 | 29.1 ± 0.8
328.15 K, x1 = 0.6828 | 0.233 ± 0.005 | 45.5 ± 1.3
338.15 K, x1 = 0.5022 | 0.6 ± 0.1 | 19.7 ± 0.5
343.15 K, x1 = 0.6828 | 0.428 ± 0.009 | 24.2 ± 0.7
343.15 K, x1 = 0.8154 | 0.321 ± 0.006 | 25.9 ± 0.7
348.15 K, x1 = 0.401 | 1.29 ± 0.03 | 9 ± 0.24
348.15 K, x1 = 0.5763 | 0.625 ± 0.013 | 15 ± 0.4
353.15 K, x1 = 0.5763 | 0.729 ± 0.015 | 12.8 ± 0.3

CCCC[N+]1(C)CCCC1.N#C[S-] + O
101 kPa
Conditions | viscosity [mPa·s]
298.15 K, x2 = 0.2203 | 68.6 ± 5.8
298.15 K, x2 = 0.5252 | 28.9 ± 1.8
298.15 K, x2 = 0.783 | 10.04 ± 0.63
298.15 K, x2 = 0.8623 | 5.9 ± 0.37
308.15 K, x2 = 0.5252 | 19.9 ± 1.2
308.15 K, x2 = 0.6634 | 12.37 ± 0.77
308.15 K, x2 = 0.8623 | 4.31 ± 0.27
308.15 K, x2 = 0.9657 | 1.36 ± 0.09
318.15 K, x2 = 0.2203 | 31.6 ± 2
318.15 K, x2 = 0.8623 | 3.23 ± 0.2
318.15 K, x2 = 0.9657 | 1.1 ± 0.07
328.15 K, x2 = 0.0853 | 28.9 ± 1.8
328.15 K, x2 = 0.783 | 4.19 ± 0.26
338.15 K, x2 = 0 | 25.3 ± 1.6
338.15 K, x2 = 0.2203 | 17.3 ± 1.1
338.15 K, x2 = 0.783 | 3.27 ± 0.2
338.15 K, x2 = 0.9657 | 0.79 ± 0.051
348.15 K, x2 = 0.2203 | 13.32 ± 0.83
348.15 K, x2 = 0.6634 | 4.42 ± 0.28
348.15 K, x2 = 0.9657 | 0.69 ± 0.044
